Laboratory results reported in ChEMBL document CHEMBL2434833, “Optimization of benzodiazepinones as selective inhibitors of the X-linked inhibitor of apoptosis protein (XIAP) second baculovirus IAP repeat (BIR2) domain” (J Med Chem, 2013).

Legend:
[1] = Tmax in C57 mouse at 10 mg/kg, po; type: ADME, organism-based; set-up: dose 10 mg/kg, route oral; details: in vivo
[2] = Oral bioavailability in C57 mouse at 10 mg/kg; type: ADME, organism-based; details: in vivo
[3] = AUC in C57 mouse at 10 mg/kg, po; type: ADME, organism-based; set-up: dose 10 mg/kg, route oral; details: plasma
[4] = Cmax in C57 mouse at 10 mg/kg, po; type: ADME, organism-based; set-up: dose 10 mg/kg, route oral; details: in vivo
Liver microsomes = details: human, up to 10 µM
[5] = Drug uptake in tumor of nude mouse xenografted with human LOX cells at 100 mg/kg, po measured at 8 hrs; type: ADME, organism-based, Neoplasm; set-up: dose 100 mg/kg, route oral; details: read-out: Drug uptake
[6] = Plasma concentration in nude mouse xenografted with human LOX cells at 100 mg/kg, po measured at 8 hrs; type: ADME, organism-based; set-up: dose 100 mg/kg, route oral
[7] = Drug uptake in tumor of nude mouse xenografted with human LOX cells at 200 mg/kg, po measured at 8 hrs; type: ADME, organism-based, Neoplasm; set-up: dose 200 mg/kg, route oral; details: read-out: Drug uptake
[8] = Plasma concentration in nude mouse xenografted with human LOX cells at 200 mg/kg, po measured at 8 hrs; type: ADME, organism-based; set-up: dose 200 mg/kg, route oral

| Structure (SMILES) | Tmax [1] | bioavailability [2] | AUC [3] | Cmax [4] | Stability (Liver microsomes) | concentration at 8 h [5] | concentration at 8 h [6] | concentration at 8 h [7] | concentration at 8 h [8] |
| --- | --- | --- | --- | --- | --- | --- | --- | --- | --- |
| CN[C@@H](C)C(=O)N[C@@H]1C(=O)N(Cc2c(OC)ccc3ccccc23)c2ccc(C#N)cc2N(C(C)=O)[C@H]1C.Cl | 4 h | 8% | 5980 ng·h/mL | 873 ng/mL | Stable |  |  |  |  |
| CN[C@@H](C)C(=O)N[C@H](C(=O)N1CCC[C@H]1c1nc(C(=O)c2ccc(F)cc2)cs1)C1CCCCC1 [LCL-161] |  |  |  |  |  | 18.4 µM | 3.3 µM |  |  |
| CN[C@@H](C)C(=O)N[C@@H]1C(=O)N(Cc2c(C)ccc3ccccc23)c2ccc(C#N)cc2N(C(C)=O)[C@H]1C.Cl | 0.25 h | 28% | 7870 ng·h/mL | 823 ng/mL |  |  |  | 7.7 µM | 5 µM |
